In patent publication US11298314B2, “Injectable composition for localized fat reduction without pain, edema, and side effects, and method for preparing same” (AMI PHARM CO., LTD., priority 2017, dated 2022):
“Also recorded” adds a separate entry of the source. Like-named read-outs stand apart in the source and are kept apart here.

Columns and labels:
paw of the rats = test: Rat paw edema; assay type: in vivo, Sprague Dawley rats; conditions: for degree of edema, 1 hour after administration / degree of edema, 2 hours after administration / degree of edema, Immediately after administration: 0.1 ml into rat paw, swelling vs before injection; for degree of edema in words: 2 hours after administration, rat paw
Method in brief: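 Male Sprague Dawley rats (6 weeks old, 170–200 g) received 0.1 ml of PBS or test composition into the paw. Paw thickness measured by caliper before, immediately after, and 1 or 2 h post-injection; edema graded 0–4, with injection-site skin lesions photographed.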

3T3-L1 adipocytes [1] = test: Lipolysis assay (glycerol release); assay type: cell-based; conditions: 48 hours; listed as PPC single
Method: The glycerol activity assay was performed with the test materials to determine whether the cell death in the MTT assay was due to necrosis or lipolysis. Glycerol is a specific marker that increases when fat breaks down. Abcam Lipolysis Assay Kit (Colorimetric) was used according to the manufacturer's manual, and the method of the test was as follows: […] And then the lysis was induced. […] After adding the glycerol assay complex (50 μl) thereto, the solution was incubated at room temperature for 30 minutes. Absorbance was measured at OD 570 (using standard curve for absolute determination).

[2] = Formulation stability of PPC injectable preparations: property, transparency, particle size, pH
3T3-L1 adipocytes [3] = test: Adipocyte (3T3-L1) reducing effect, MTT assay; assay type: cell-based; conditions: for adipocyte-reducing activity compared with DCA 1.0% (Kybella): 96 hours
Method: Tests were performed to compare the adipocyte reducing activity of the PPC single composition and the PPC composition solubilized with bile acids. Differentiated 3T3L-1 adipocyte lines were used to observe adipocyte reduction activity, and cell viability was monitored by MTT assay. […] Materials and methods employed in the following experiments are described below. In the following, % of the composition refers to % (w/v).
The specific test methods are as follows. […] The cells were washed twice with PBS, treated with MTT reagent (50 μl) and left at 37° C. for 2 hours. After removing the supernatant, MTT formazan crystals were dissolved in DMSO and the absorbance was measured at 540 nm using a microplate reader.
The 3T3-L1 adipocyte (ATCC) was cultured in Dulbecco's modified eagle medium (DMEM) (Invitrogen) supplemented with 10% fetal bovine serum, 100 units/ml penicillin and 100 μg/ml streptomycin under the condition of 5% CO2 and 37° C. […] Subsequently, the medium was replaced with DMEM medium containing 1 μg/ml insulin (Sigma), and the culture medium was maintained and changed every 2 to 3 days until the degree of differentiation reaches maximum. If it took more than 7 days, the cells were kept in normal DMEM culture medium until starting the tests. […] After the cells were incubated for 3 hours under the condition of 37° C. and 5% CO2, the MTT solution was removed.

inguinal fat pad = conditions: 0.2 ml s.c. once into inguinal fat pad, 8 days post-injection
[4] = test system: Caspase 3 in 3T3-L1 adipocytes; test: Caspase 3 activity assay; assay type: cell-based; conditions: 0-48 hours; listed as PPC single composition
Method: The Caspase 3 activity assay was performed with the test materials to determine whether the cell death in the result of MTT assay was due to necrosis or apoptosis. The Caspase 3 specifically increases when apoptosis occurs and is a marker of apoptosis. […] The cells were then treated with 50 ul of cell lysis buffer (10 mM Tris-HCl, 10 mM NaH2PO4/NaHPO4, pH 7.5, 130 mM NaCl, 1% Triton X-100 and 10 mM sodium pyrophosphate) and left at 4° C. for […]. The supernatant was collected by centrifugation at 1000× rpm for 1 minute, and protein quantification was performed by BCA method. The 50 μl of reaction buffer (4 mM HEPES, pH 7.5, 10% glycerol, 2 mM dithiothreitol) and 0.5 μl of 4 mM DEVD-p-NA were added to each sample and reacted at 37° C. for 1 hour. Then wavelength was measured with a […] at 405 nm.

[5] = test system: tissues of the injected area (rat paw); test: H&E staining histological test (inflammation) of injected rat paw; assay type: in vivo, Sprague Dawley rats; conditions: for Inflammation reaction: GCA 0.0, H&E of injected rat paw; for degree of inflammation (H&E) in words: rats sacrificed at 3 hours, injected paw
Method: The tissues of the injected area were dissected, fixed with 10% formalin, and then the specimen was prepared and images were captured using an optical microscope. The degree of inflammation was evaluated as follows.

mouse paw = test: In vivo pain: moving distance and moving speed after paw injection; conditions: 100 ul into paw, 2 hours after administration, 5 minutes; listed as PPC 5.0%
Method: Specifically, 100 μl of each test material was injected into the floor of the paws of the rats, and edema was observed. […] The movement before and after injection of the test material was compared through distance and time. The movement before and after injection was measured using Noldus Video Traking system and compared with moving distance (FIG. 13A) and moving speed (FIG. 13B).
After the edema was confirmed to be the most at 2 hours after administration, the moving distance (cm) and the moving speed (cm/s) for 5 minutes were compared using Noldus Video Traking system.

1,2-diacyl-sn-glycero-3-phosphocholine [PPC]
degree of edema, 1 hour after administration (paw of the rats; listed as PPC 1.25%): + (mild edema [+, (the degree of swelling was 1-20% compared to before the injection)]) | degree of edema, 2 hours after administration (paw of the rats; listed as PPC 1.25%): + (mild edema [+, (the degree of swelling was 1-20% compared to before the injection)]) | degree of edema, Immediately after administration (paw of the rats; listed as PPC 1.25%): + (mild edema [+, (the degree of swelling was 1-20% compared to before the injection)]) | degree of edema, 1 hour after administration (paw of the rats; listed as PPC 2.50%): + (mild edema [+, (the degree of swelling was 1-20% compared to before the injection)]) | degree of edema, 2 hours after administration (paw of the rats; listed as PPC 2.50%): + (mild edema [+, (the degree of swelling was 1-20% compared to before the injection)]) | degree of edema, Immediately after administration (paw of the rats; listed as PPC 2.50%): + (mild edema [+, (the degree of swelling was 1-20% compared to before the injection)]) | degree of edema, 1 hour after administration (paw of the rats; listed as PPC 5.00%): + (mild edema [+, (the degree of swelling was 1-20% compared to before the injection)]) | degree of edema, 2 hours after administration (paw of the rats; listed as PPC 5.00%): + (mild edema [+, (the degree of swelling was 1-20% compared to before the injection)]) | degree of edema, Immediately after administration (paw of the rats; listed as PPC 5.00%): + (mild edema [+, (the degree of swelling was 1-20% compared to before the injection)]) | degree of edema, 1 hour after administration (paw of the rats; listed as PPC 7.50%): + (mild edema [+, (the degree of swelling was 1-20% compared to before the injection)]) | degree of edema, 2 hours after administration (paw of the rats; listed as PPC 7.50%): + (mild edema [+, (the degree of swelling was 1-20% compared to before the injection)]) | degree of edema, Immediately after administration (paw of the rats; listed as PPC 7.50%): ++ (moderate edema [++, (the degree of swelling was 20-40% compared to before the injection)]) | degree of edema, 1 hour after administration (paw of the rats; listed as PPC 10.0%): + (mild edema [+, (the degree of swelling was 1-20% compared to before the injection)]) | degree of edema, 2 hours after administration (paw of the rats; listed as PPC 10.0%): + (mild edema [+, (the degree of swelling was 1-20% compared to before the injection)]) | degree of edema, Immediately after administration (paw of the rats; listed as PPC 10.0%): ++ (moderate edema [++, (the degree of swelling was 20-40% compared to before the injection)]) | degree of edema, 1 hour after administration (paw of the rats; listed as PPC 12.5%): ++ (moderate edema [++, (the degree of swelling was 20-40% compared to before the injection)]) | degree of edema, 2 hours after administration (paw of the rats; listed as PPC 12.5%): ++ (moderate edema [++, (the degree of swelling was 20-40% compared to before the injection)]) | degree of edema, Immediately after administration (paw of the rats; listed as PPC 12.5%): ++ (moderate edema [++, (the degree of swelling was 20-40% compared to before the injection)]) | degree of edema, 1 hour after administration (paw of the rats; listed as PPC 15.0%): ++ (moderate edema [++, (the degree of swelling was 20-40% compared to before the injection)]) | degree of edema, 2 hours after administration (paw of the rats; listed as PPC 15.0%): ++ (moderate edema [++, (the degree of swelling was 20-40% compared to before the injection)]) | degree of edema, Immediately after administration (paw of the rats; listed as PPC 15.0%): +++ (severe edema [+++, (the degree of swelling was 40-60% compared to before the injection)]) | degree of edema in words (paw of the rats; listed as PPC 12.5%): moderate | degree of edema in words (paw of the rats; listed as PPC 15.0%): moderate | glycerol release / cytolytic activity (3T3-L1 adipocytes [1]): slightly higher cytolytic activity than at 24 hours; also recorded: slightly higher cytolytic activity than that of 24 hours | formulation stability / property in words [2]: poor formulation stability | adipocyte viability / adipocyte-reducing activity (3T3-L1 adipocytes [3]; 24 to 96 hours, various concentrations, listed as PPC single composition): reduced adipocyte viability in time and concentration dependent manner | adipocyte-reducing activity compared with DCA 1.0% (Kybella) (3T3-L1 adipocytes [3]; listed as PPC 5%): equivalent | adipocyte-reducing activity compared with DCA 1.0% (Kybella) (3T3-L1 adipocytes [3]; listed as PPC 5.0%): similar; also recorded: equivalent | concentration of phosphatidylcholine with no lipolysis effect (3T3-L1 adipocytes [3]; FIGS. 7A to 7D): less than 0.625 % (w/v) | inflammation at the site of administration, dermal and epidermal tissues (inguinal fat pad): no inflammatory cells such as neutrophils | histological change of adipocytes in fat tissue (inguinal fat pad; listed as PPC 5.0%): size of adipocytes was reduced | histological change of adipocytes in fat tissue (inguinal fat pad; listed as PPC 15.0%): development of macrophages was confirmed around adipocytes | histological change of adipocytes in fat tissue (inguinal fat pad; listed as PPC single composition): adipocyte apoptosis and degradation were induced in a concentration-dependent manner | caspase-3 activity [4]: time-dependent effect of inducing caspase-3 activity to a considerable level; also recorded: time-dependent effect of inducing caspase-3 activity to a considerable extent | Inflammation reaction ([5]; PPC single composition 2.50% (w/v)): − | Inflammation reaction ([5]; PPC single composition 5.00% (w/v)): − | Inflammation reaction ([5]; PPC single composition 7.50% (w/v)): − | Inflammation reaction ([5]; PPC single composition 10.0% (w/v)): + | Inflammation reaction ([5]; PPC single composition 12.5% (w/v)): + | Inflammation reaction ([5]; PPC single composition 15.0% (w/v)): ++ | degree of inflammation (H&E) in words ([5]; listed as PPC 10.0%): Mild | degree of inflammation (H&E) in words ([5]; listed as PPC 12.5%): Mild | degree of inflammation (H&E) in words ([5]; listed as PPC 15.0%): moderate | change of moving distance and moving speed (mouse paw): not changed or slightly increased; also recorded: wasn't changed or was slightly increased
